Measurements taken from PubChem BioAssay (NCI).
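Five compound concentrations were applied to cells in 96-well plates for 48 hours; endpoints were derived by simple linear interpolation of the resulting dose-response curve. At the GI50, growth is halved. At the TGI there is no net growth.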

Assays:
Assay in all cases: NCI tumour cell line growth inhibition, 48 h
KM12 colon = tested on: KM12 colon
SN12C renal = tested on: SN12C renal
SF-295 CNS = tested on: SF-295 CNS
MDA-MB-231 breast = tested on: MDA-MB-231 breast
SK-MEL-5 melanoma = tested on: SK-MEL-5 melanoma
SK-MEL-28 melanoma = tested on: SK-MEL-28 melanoma
MDA-MB-435 = tested on: MDA-MB-435
ACHN renal = tested on: ACHN renal
OVCAR-4 ovarian = tested on: OVCAR-4 ovarian
HL-60(TB) leukemia = tested on: HL-60(TB) leukemia

| Compound | GI50 (KM12 colon) | TGI (KM12 colon) | GI50 (SN12C renal) | TGI (SN12C renal) | GI50 (SF-295 CNS) | TGI (SF-295 CNS) | GI50 (MDA-MB-231 breast) | TGI (MDA-MB-231 breast) | GI50 (SK-MEL-5 melanoma) | TGI (SK-MEL-5 melanoma) | GI50 (SK-MEL-28 melanoma) | TGI (SK-MEL-28 melanoma) | GI50 (MDA-MB-435) | TGI (MDA-MB-435) | GI50 (ACHN renal) | TGI (ACHN renal) | GI50 (OVCAR-4 ovarian) | TGI (OVCAR-4 ovarian) | TGI (HL-60(TB) leukemia) | GI50 (HL-60(TB) leukemia) |
| --- | --- | --- | --- | --- | --- | --- | --- | --- | --- | --- | --- | --- | --- | --- | --- | --- | --- | --- | --- | --- |
| C=C1c2ccoc2C[C@H]2[C@H]1CC[C@@]1(O)[C@@](C)(C(=O)OC)CCC[C@]21C | 25.6 µM | 89.7 µM | 16.9 µM | 34 µM | 27.9 µM | 81.9 µM | 36.6 µM | > 100 µM | 18.1 µM | 37.8 µM | 54.2 µM | > 100 µM | 23.9 µM | 54.3 µM | 16 µM | 40.9 µM | 86.5 µM | > 100 µM | – | – |
| CCc1cccc(C)c1NC(=O)C1=C(C)NC(C)=C(C(=O)Nc2c(C)cccc2CC)C1c1ccc2c(c1)OCO2 | – | 30.9 µM | – | 42.6 µM | – | 43.7 µM | – | – | – | 31.9 µM | – | 32.7 µM | – | – | – | 29.6 µM | – | 66.1 µM | 57.1 µM | – |
| CCN1C(=O)N(CC)C2C1NN=c1s/c(=C\c3ccccn3)c(=O)n12 (stereo not drawn) | 1.29 µM | > 100 µM | 5.29 µM | > 100 µM | 2.72 µM | > 100 µM | 4.05 µM | > 100 µM | 2.46 µM | > 100 µM | 4.95 µM | > 100 µM | – | – | 6.45 µM | > 100 µM | > 100 µM | > 100 µM | 3.42 µM | 0.487 µM |
| COC1=C(C)C(=O)c2c(cc3c(c2O)C(C)(CCC=C(C)C)C(C)O3)C1=O (stereo not drawn) | – | > 100 µM | – | > 61.8 µM | – | 52.7 µM | – | – | – | 27.4 µM | – | > 100 µM | – | – | – | > 100 µM | – | > 100 µM | > 100 µM | – |
| CN(C)C(=O)c1ccc([N+](=O)[O-])cc1 | – | > 100 µM | – | > 100 µM | – | > 100 µM | – | – | – | > 100 µM | – | > 100 µM | – | – | – | > 100 µM | – | > 100 µM | > 100 µM | – |
| COc1ccc(/C=C(\C(=O)NCc2cccnc2)S(=O)(=O)c2ccccc2)cc1OC | 2.81 µM | 8.61 µM | 2.49 µM | 9.15 µM | 2.95 µM | 9.11 µM | 2.93 µM | 10.6 µM | 2.97 µM | 10.9 µM | 3.06 µM | 10.5 µM | 2.74 µM | 10.9 µM | 3.16 µM | 11.5 µM | – | – | 6.42 µM | 2.01 µM |
| CCOC(=O)/C(O)=C(/C(=O)OC)c1ccc(Cl)cc1 | – | > 100 µM | – | > 100 µM | – | > 100 µM | – | – | – | > 100 µM | – | > 100 µM | – | – | – | > 100 µM | – | > 100 µM | – | – |
| CC(C)(C)c1[nH]nc2c1C(c1cc3ccccc3[nH]c1=O)Nc1cc(C(=O)OCc3ccccc3)ccc1N2 (stereo not drawn) | 2.83 µM | 7.34 µM | 3.77 µM | > 100 µM | 3.17 µM | 38.5 µM | 5.91 µM | > 100 µM | – | – | 2.44 µM | 6.43 µM | 2.95 µM | > 100 µM | 4.25 µM | > 100 µM | 4.12 µM | > 100 µM | > 100 µM | 3.66 µM |
